Test results reported in US12227495B2, “Herbicidal compounds” (SYNGENTA CROP PROTECTION AG, priority 2018, dated 2025).

How the values were obtained:
Assay type in all cases: in vivo
Solanum nigrum (SOLNI) [1] = assay: Pre-emergence herbicide test, glasshouse, percentage damage; conditions: rate 1000 g/ha, evaluated after 13 days
Summary of the method: (§1)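 Seeds sown in pots; cultured 1 day (pre-emergence) or 8 days (post-emergence) in a controlled glasshouse; then sprayed with the active in acetone/water 50:50 plus 0.5% Tween 20 at 500 g/ha unless noted; grown on 13 days; damage assessed and banded into five classes.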

Setaria faberi (SETFA) [2] = assay: as above; conditions: rate 1000 g/ha, evaluated after 13 days
Summary of the method: as §1

[3] = tested on: Ipomoea hederacea (IPOHE); assay: as above; conditions: rate 1000 g/ha, evaluated after 13 days
Summary of the method: as §1

[4] = tested on: Amaranthus retoflexus (AMARE); assay: as above; conditions: rate 1000 g/ha, evaluated after 13 days
Summary of the method: as §1

[5] = tested on: Echinochloa crus-galli (ECHCG); assay: as above; conditions: rate 1000 g/ha, evaluated after 13 days
Summary of the method: as §1

Lolium perenne (LOLPE) [6] = assay: as above; conditions: rate 1000 g/ha, evaluated after 13 days
Summary of the method: as §1

Solanum nigrum (SOLNI) [7] = assay: Post-emergence herbicide test, glasshouse, percentage damage; conditions: 1000 g/ha, evaluated after 13 days
Summary of the method: as §1

Setaria faberi (SETFA) [8] = assay: as above; conditions: 1000 g/ha, evaluated after 13 days
Summary of the method: as §1

[9] = tested on: Ipomoea hederacea (IPOHE); assay: as above; conditions: 1000 g/ha, evaluated after 13 days
Summary of the method: as §1

[10] = tested on: Amaranthus retoflexus (AMARE); assay: as above; conditions: 1000 g/ha, evaluated after 13 days
Summary of the method: as §1

[11] = tested on: Echinochloa crus-galli (ECHCG); assay: as above; conditions: 1000 g/ha, evaluated after 13 days
Summary of the method: as §1

Lolium perenne (LOLPE) [12] = assay: as above; conditions: 1000 g/ha, evaluated after 13 days
Summary of the method: as §1

| SMILES | Pre-emergence Test SOLNI percentage damage (five point scale) (Solanum nigrum (SOLNI) [1]) | Pre-emergence Test SETFA percentage damage (five point scale) (Setaria faberi (SETFA) [2]) | Pre-emergence Test IPOHE percentage damage (five point scale) [3] | Pre-emergence Test AMARE percentage damage (five point scale) [4] | Pre-emergence Test ECHCG percentage damage (five point scale) [5] | Pre-emergence Test LOLPE percentage damage (five point scale) (Lolium perenne (LOLPE) [6]) | percentage damage caused to the plant, SOLNI (Solanum nigrum (SOLNI) [7]) | percentage damage caused to the plant, SETFA (Setaria faberi (SETFA) [8]) | percentage damage caused to the plant, IPOHE [9] | percentage damage caused to the plant, AMARE [10] | percentage damage caused to the plant, ECHCG [11] | percentage damage caused to the plant, LOLPE (Lolium perenne (LOLPE) [12]) |
| --- | --- | --- | --- | --- | --- | --- | --- | --- | --- | --- | --- | --- |
| Fc1cccc(Oc2cccc(C(F)(F)F)n2)c1-c1cc(C(F)F)no1 [Compound A47] | 1 (1=0-20%) | 1 (1=0-20%) | 1 (1=0-20%) | 1 (1=0-20%) | 1 (1=0-20%) | 1 (1=0-20%) | 3 (3=41-60%) | 1 (1=0-20%) | 1 (1=0-20%) | 3 (3=41-60%) | 1 (1=0-20%) | 1 (1=0-20%) |
| Fc1cccc(Oc2cccc(OC(F)F)n2)c1-c1cc(C(F)F)no1 [Compound A48] | 1 (1=0-20%) | 1 (1=0-20%) | 1 (1=0-20%) | 1 (1=0-20%) | 1 (1=0-20%) | 1 (1=0-20%) | 5 (5=81-100%) | 2 (2=21-40%) | 2 (2=21-40%) | 5 (5=81-100%) | 1 (1=0-20%) | 1 (1=0-20%) |
| N#Cc1cccnc1Oc1cccc(F)c1-c1cc(C(F)F)no1 [Compound A49] | 5 (5=81-100%) | 5 (5=81-100%) | 1 (1=0-20%) | 5 (5=81-100%) | 3 (3=41-60%) | 1 (1=0-20%) | 5 (5=81-100%) | 2 (2=21-40%) | 3 (3=41-60%) | 5 (5=81-100%) | 3 (3=41-60%) | 1 (1=0-20%) |
| Fc1ccc(Oc2cccc(F)c2-c2cc(C(F)F)no2)nc1F [Compound A50] | 4 (4=61-80%) | 4 (4=61-80%) | 1 (1=0-20%) | 4 (4=61-80%) | 1 (1=0-20%) | 1 (1=0-20%) | 5 (5=81-100%) | 3 (3=41-60%) | 1 (1=0-20%) | 3 (3=41-60%) | 2 (2=21-40%) | 1 (1=0-20%) |
| Fc1cccc(Oc2ncc(C(F)(F)F)cc2Cl)c1-c1cc(C(F)F)no1 [Compound A51] | 1 (1=0-20%) | 1 (1=0-20%) | 1 (1=0-20%) | 1 (1=0-20%) | 1 (1=0-20%) | 1 (1=0-20%) | 5 (5=81-100%) | 1 (1=0-20%) | 1 (1=0-20%) | 4 (4=61-80%) | 1 (1=0-20%) | 1 (1=0-20%) |
| Cc1cccc(Oc2ncc(Cl)cc2F)c1-n1cc(C(F)(F)F)cn1 [Compound A54] | 5 (5=81-100%) | 5 (5=81-100%) | 1 (1=0-20%) | 5 (5=81-100%) | 3 (3=41-60%) | 5 (5=81-100%) | 5 (5=81-100%) | 5 (5=81-100%) | 1 (1=0-20%) | 3 (3=41-60%) | 3 (3=41-60%) | 4 (4=61-80%) |
